# In BindingDB's records for doi:10.1021/jm020994z (Universit&#224, 2003):
# How the values were obtained:
# [1] = Binding affinity of compound was tested for Sigma receptor type 1
# [2] = biological target: Sigma intracellular receptor 2 (Rattus norvegicus); test: Binding affinity of compound was tested for Sigma receptor type 2
Ki [1] [nM],Ki [2] [nM],Structure (SMILES)
4300,147,COc1ccccc1C(=O)CCCCCN1CCN(c2noc3ccccc23)CC1 [6-(4-Benzo[d]isoxazol-3-yl-piperazin-1-yl)-1-(2-methoxy-phenyl)-hexan-1-one]
61,–,O=C(CCCCCN1CCN(c2noc3ccccc23)CC1)c1ccccc1O [6-(4-Benzo[d]isoxazol-3-yl-piperazin-1-yl)-1-(2-hydroxy-phenyl)-hexan-1-one]
